According to patent US11311543B2, “Compositions and methods for inhibiting PTPN22” (YALE UNIVERSITY, priority 2016, dated 2022):

Key:
LYN = assay: Phosphorylation kinetics of LYN in RAMOS cells after BCR triggering (immunoblot); assay type: cell-based, human; conditions: LTV-1 5 μg/mL
Procedure: (§1) FIG. 40A depicts the phosphorylation of SHIP1, Lyn and ERK1/2 in total cell lysates of Ramos B cells treated or not with the PTPN22 inhibitor LTV-1 (5 μg/mL) for the indicated times. The cells were subjected to immunoblot analysis of P-LYN P-SHIP1, P-ERK1/2, and β-ACTIN. FIG. 40B depicts flow cytometry analysis of calcium flux of Ramos B cells treated or not with the PTPN22 inhibitor LTV-1 (5 μg/mL) for the indicated times followed by stimulation with anti-IgM F(ab′)2 at the indicated concentrations. FIG. 40C depicts flow cytometry analysis of calcium flux of splenocyte cells treated or not with LTV-1 (0.75 mg) twice daily for 7 days and stimulated with anti-IgM F(ab′)2 (25 μg/mL). FIG. 40D depicts flow cytometry analysis of calcium flux of splenocyte expressing PTPN22 shRNA and stimulated with anti-IgM F(ab′)2 (25 μg/mL).
(§2) However, downstream ERK phosphorylation was not affected by PTPN22 inhibition (FIG. 40A). Since PTPN22 inhibition enhanced TCR signaling in Jurkat cell line, it was investigated if PTPN22 blockade may also increase BCR signaling and calcium flux induced by BCR triggering was measured in RAMOS cells in the presence or not of LTV-1. Calcium flux was increased by PTPN22 inhibition, especially at lower concentration of BCR triggering agent (FIG. 40B). […]

SHIP1 = assay: Phosphorylation kinetics of SHIP1 in RAMOS cells after BCR triggering (immunoblot); assay type: cell-based, human; conditions: LTV-1 5 μg/mL
Procedure: as §1, §2

RAMOS cells = assay: Calcium flux induced by BCR triggering in RAMOS cells (flow cytometry); assay type: cell-based, human; conditions: LTV-1 5 μg/mL, anti-IgM F(ab′)2, especially at lower concentration of BCR triggering agent
Procedure: as §1, §2

PTPN22 = PTPN22 protein expression in GFP+ shRNA+ developing B cells from spleen of NSG mice; assay type: in vivo, human; conditions: GFP+ vs GFP- hCD19+ cells from spleen of NSG mice
From the text: FIG. 9A depicts a schematic of the experimental design. CD34+ HSCs carrying PTPN22 T allele(s) were transduced with lentiviruses allowing the expression of PTPN22 shRNA before injection in the liver of 3 day-old NSG mice. FIG. 9B depicts representative flow cytometry analysis of CD19+ cells isolated from the spleen of NSG mouse engrafted with PTPN22 C/T HSCs transduced with a GFP-tagged lentivirus expressing PTPN22 specific shRNA. CD19+ B cells were stained with anti-hCD19, anti-IgM and anti-hCD10 antibodies. The frequencies of GFP− and GFP+ shRNA+ new emigrant B cells are shown. […] The frequencies of polyreactive new emigrant B cells from sorted GFP+ fractions expressing PTPN22 shRNA were determined and compared to those of GFP− new emigrant B cells. […] The frequencies of HEp-2 reactive new emigrant B cells from sorted GFP+ fractions expressing PTPN22 shRNA were determined and compared to those of GFP− new emigrant B cells. […]
Total cell lysates were separated by SDS page, transferred to PVDF membranes, probed with mouse anti-PTPN22 (Invitrogen) and detected by chemiluminescence (Amersham ECL Prime Western Blotting detection Reagent) using a GBox documentation system (Syngene). For quantification, blots were stripped with stripping buffer (Pierce) and reprobed with a mouse anti-β-Actin antibody (Sigma-Aldrich).

Compound | phosphorylation of LYN at position Y396 (LYN) | phosphorylation of SHIP1 at position Y2010 (SHIP1) | calcium flux induced by BCR triggering (RAMOS cells) | decrease of PTPN22 expression in developing B cells (PTPN22)
Cc1ccccc1N1C(=O)/C(=C/c2ccc(OCc3cccc(C(=O)O)c3)cc2)C(=O)NC1=S [LTV-1] | decreases | decreases | increased | –
shRNA #1: shRNA targeting human PTPN22, 5′-CTAGTGCTCTTGGTGTATATT-3′, delivered by GFP-tagged lentivirus | – | – | – | more than 90%
